From ChEMBL document CHEMBL1157453, “Chrobisiamone A, a new bischromone from Cassia siamea and a biomimetic transformation of 5-acetonyl-7-hydroxy-2-methylchromone into cassiarin A” (Bioorg Med Chem Lett, 2008)
In brackets after ≈: the same amount, converted by molar mass.

tested on: Plasmodium falciparum; experiment: Antiplasmodial activity against Plasmodium falciparum 3D7; type: functional, organism-based

Structure (SMILES)	IC50
Cc1cc2cc(=O)cc3oc(C)cc(o1)c23 [ANHYDROBARAKOL]	7.8 µg/mL (≈ 36.4 µM)
CC(=O)Cc1cc(O)cc2oc(C)cc(=O)c12	4.5 µg/mL (≈ 19.4 µM)
CC(=O)Cc1cc(O)cc2c1C(=O)CC(C)(Cc1cc(=O)c3c(CC(C)=O)cc(O)cc3o1)O2 (stereo not drawn) [CHROBISIAMONE A]	2.6 µg/mL (≈ 5.6 µM)
